Results as given in patent US8481584B2, “1H-thieno[2,3-c]pyrazole derivatives useful as kinase inhibitors” (Nerviano Medical Sciences S.R.L., priority 2004, dated 2013).

Each compound was assayed against T1, Aurora-2 (Homo sapiens, UniProt O14965) (assay: Inhibition assay of Aurora-2 activity (SPA technology)). Settings: screened according to the methods of the pharmacology section; read-out: IC50 values for Aurora-2 inhibition.
T1 sequence (O14965 1-403): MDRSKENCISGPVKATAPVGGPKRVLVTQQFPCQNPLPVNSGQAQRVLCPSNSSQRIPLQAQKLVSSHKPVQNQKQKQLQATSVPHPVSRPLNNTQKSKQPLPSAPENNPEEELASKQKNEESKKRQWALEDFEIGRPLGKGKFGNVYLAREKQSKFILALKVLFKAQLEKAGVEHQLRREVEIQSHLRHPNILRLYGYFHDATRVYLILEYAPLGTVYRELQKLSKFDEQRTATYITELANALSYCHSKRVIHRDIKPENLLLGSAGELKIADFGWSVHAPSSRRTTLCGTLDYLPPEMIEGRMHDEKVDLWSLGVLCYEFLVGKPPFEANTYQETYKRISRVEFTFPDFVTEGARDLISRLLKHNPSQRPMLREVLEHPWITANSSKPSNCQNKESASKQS
Format: biochemical
Description: The inhibiting activity and the potency of selected compounds is determined through a method of assay based on the use of the SPA technology (Amersham Pharmacia Biotech).
The assay consists of the transfer of radioactivity labelled phosphate moiety by the kinase to a biotinylated substrate. The resulting 33P-labelled biotinylated product is allowed to bind to streptavidin-coated SPA beads (biotin capacity 130 pmol/mg), and light emitted was measured in a scintillation counter.
Inhibition Assay of Aurora-2 Activity
After 60 minutes at room temperature incubation, reaction was stopped and biotinylated peptide captured by adding 100 μl of bead suspension.
Stratification: 100 μl of CsCl2 5 M were added to each well and let stand 4 hour before radioactivity was counted in the Top-Count instrument.
Experimental data were analyzed by the computer program GraphPad Prizm using the four parameter logistic equation: y=bottom+(top−bottom)/(1+10^((logIC50−x)*slope)) where x is the logarithm of the inhibitor concentration, y is the response; y starts at bottom and goes to top with a sigmoid shape.

IC50 [µM] | Structure (SMILES)
< 0.02 | CC(C)(NC(=O)c1cc2c(NC(=O)c3ccc(S(C)(=O)=O)cc3)n[nH]c2s1)c1ccccc1 [Compound 143, 3-(4-Methanesulfonyl-benzoylamino)-1H-thieno[2,3-c]pyrazole-5-carboxylic acid(1-methyl-1-phenyl-ethyl)-amide]
< 0.02 | CC(C)(NC(=O)c1cc2c(NC(=O)c3cccs3)n[nH]c2s1)c1ccc(F)cc1 [Compound 151, 3-[(Thiophene-2-carbonyl)-amino]-1H-thieno[2,3-c]pyrazole-5-carboxylic acid [1-(4-fluoro-phenyl)-1-methyl-ethyl]-amide]
< 0.02 | CC(C)(NC(=O)c1cc2c(NC(=O)c3ccc(N4CCOCC4)cc3)n[nH]c2s1)c1ccccc1F [Compound 148, 3-(4-Morpholin-4-yl-benzoylamino)-1H-thieno[2,3-c]pyrazole-5-carboxylic acid [1-(2-fluoro-phenyl)-1-methyl-ethyl]-amide]
< 0.02 | COc1cccc(C(C)(C)NC(=O)c2cc3c(NC(=O)c4ccc(N5CCOCC5)cc4)n[nH]c3s2)c1 [Compound 140, 3-(4-Morpholin-4-yl-benzoylamino)-1H-thieno[2,3-c]pyrazole-5-carboxylic acid [1-(3-methoxy-phenyl)-1-methyl-ethyl]-amide]
< 0.02 | CC(C)(NC(=O)c1cc2c(NC(=O)c3ccc(N4CCOCC4)cc3)n[nH]c2s1)c1cccc(S(C)(=O)=O)c1 [Compound 147, 3-(4-Morpholin-4-yl-benzoylamino)-1H-thieno[2,3-c]pyrazole-5-carboxylic acid [1-(3-methanesulfonyl-phenyl)-1-methyl-ethyl]amide]
< 0.02 | CC(C)(NC(=O)c1cc2c(NC(=O)c3ccc(N4CCOCC4)cc3)n[nH]c2s1)c1cccc(F)c1 [Compound 149, 3-(4-Morpholin-4-yl-benzoylamino)-1H-thieno[2,3-c]pyrazole-5-carboxylic acid [1-(3-fluoro-phenyl)-1-methyl-ethyl]-amide]
< 0.02 | CC(C)(NC(=O)c1cc2c(NC(=O)c3ccc(N4CCS(=O)(=O)CC4)cc3)n[nH]c2s1)c1ccccc1 [Compound 144, 3-[4-(1,1-Dioxo-thiomorpholin-4-yl)-benzoylamino]-1H-thieno[2,3-c]pyrazole-5-carboxylic acid (1-methyl-1-phenyl-ethyl)-amide]

Further lines, the compound ahead of its results:

Structure (SMILES) | IC50 [µM]
CC(C)(NC(=O)c1cc2c(NC(=O)c3cccs3)n[nH]c2s1)c1cccc(F)c1 [Compound 124, 3-[(Thiophene-2-carbonyl)-amino]-1H-thieno[2,3-c]pyrazole-5-carboxylic acid [1-(3-fluoro-phenyl)-1-methyl-ethyl]-amide] | < 0.02
CC(C)(NC(=O)c1cc2c(NC(=O)c3ccc(CN4CCSC4)cc3)n[nH]c2s1)c1ccccc1 [Compound 49, 3-(4-Thiazolidin-3-ylmethyl-benzoylamino)-1H-thieno[2,3-c]pyrazole-5-carboxylic acid (1-methyl-1-phenyl-ethyl)-amide] | < 0.02
CC(C)NCc1ccc(C(=O)Nc2n[nH]c3sc(C(=O)NC(C)(C)c4ccccc4)cc23)cc1 [Compound 40, 3-[4-(Isopropylamino-methyl)-benzoylamino]-1H-thieno[2,3-c]pyrazole-5-carboxylic acid (1-methyl-1-phenyl-ethyl)-amide] | < 0.02
CN1CCN(c2ccc(C(=O)Nc3n[nH]c4sc(C(=O)NC5(c6ccccc6)CC5)cc34)cc2)CC1 [Compound 35, 3-{[4-(4-methylpiperazin-1-yl)benzoyl]amino}-N-(1-phenylcyclopropyl)-1H-thieno[2,3-c]pyrazole-5-carboxamide] | < 0.02
CC(C)(NC(=O)c1cc2c(NC(=O)c3ccc(CN4CCC4)cc3)n[nH]c2s1)c1ccccc1 [Compound 53, 3-(4-Azetidin-1-ylmethyl-benzoylamino)-1H-thieno[2,3-c]pyrazole-5-carboxylic acid (1-methyl-1-phenyl-ethyl)-amide] | < 0.02
CC[C@@H](NC(=O)c1cc2c(NC(=O)c3ccc(F)cc3)n[nH]c2s1)c1ccccc1 [Compound 9, 3-[(4-fluorobenzoyl)amino]-N-[(1R)-1-phenylpropyl]-1H-thieno[2,3-c]pyrazole-5-carboxamide] | < 0.02
CC(C)(NC(=O)c1cc2c(NC(=O)c3ccc(CNC4CC4)cc3)n[nH]c2s1)c1ccccc1 [Compound 62, 3-(4-Cyclopropylaminomethyl-benzoylamino)-1H-thieno[2,3-c]pyrazole-5-carboxylic acid (1-methyl-1-phenyl-ethyl)-amide] | < 0.02
CN1CCN(c2ccc(C(=O)Nc3n[nH]c4sc(C(=O)N[C@H](CN5CCCC5)c5ccccc5)cc34)cc2)CC1 [Compound 32, 3-{[4-(4-methylpiperazin-1-yl)benzoyl]amino}-N-[(1S)-1-phenyl-2-pyrrolidin-1-ylethyl]-1H-thieno[2,3-c]pyrazole-5-carboxamide] | < 0.02
CC(C)(NC(=O)c1cc2c(NC(=O)c3ccco3)n[nH]c2s1)c1ccccc1 [Compound 24, 3-(2-furoylamino)-N-(1-methyl-1-phenylethyl)-1H-thieno[2,3-c]pyrazole-5-carboxamide] | < 0.02
O=C(Nc1n[nH]c2sc(C(=O)NC3(c4ccccc4)CCCC3)cc12)c1cccs1 [Compound 122, 3-[(Thiophene-2-carbonyl)-amino]-1H-thieno[2,3-c]pyrazole-5-carboxylic acid (1-phenyl-cyclopentyl)-amide] | < 0.02
CC(C)(NC(=O)c1cc2c(NC(=O)c3ccc(CN4CCOCC4)cc3)n[nH]c2s1)c1ccccc1 [Compound 38, 3-(4-Morpholin-4-ylmethyl-benzoylamino)-1H-thieno[2,3-c]pyrazole-5-carboxylic acid (1-methyl-1-phenyl-ethyl)-amide] | < 0.02
CC(C)(NC(=O)c1cc2c(NC(=O)c3ccc(CNC4CCC4)cc3)n[nH]c2s1)c1ccccc1 [Compound 63, 3-(4-Cyclobutylaminomethyl-benzoylamino)-1H-thieno[2,3-c]pyrazole-5-carboxylic acid (1-methyl-1-phenyl-ethyl)-amide] | < 0.02
CC(C)(NC(=O)c1cc2c(NC(=O)c3ccc(CN4CCOCC4)cc3)n[nH]c2s1)c1cccc(F)c1 [Compound 42, 3-(4-Morpholin-4-ylmethyl-benzoylamino)-1H-thieno[2,3-c]pyrazole-5-carboxylic acid [1-(3-fluoro-phenyl)-1-methyl-ethyl]-amide] | < 0.02
C[C@](CN1CCOCC1)(NC(=O)c1cc2c(NC(=O)c3ccc(N4CCOCC4)cc3)n[nH]c2s1)c1ccccc1 [Compound 137, 3-(4-Morpholin-4-yl-benzoylamino)-1H-thieno[2,3-c]pyrazole-5-carboxylic acid ((S)-1-methyl-2-morpholin-4-yl-1-phenyl-ethyl)-amide] | < 0.02
CC(C)N(C)Cc1ccc(C(=O)Nc2n[nH]c3sc(C(=O)NC(C)(C)c4ccccc4)cc23)cc1 [Compound 64, 3-{4-[(Isopropyl-methyl-amino)-methyl]benzoylamino}-1H-thieno[2,3-c]pyrazole-5-carboxylic acid (1-methyl-1-phenyl-ethyl)-amide] | < 0.02
CC(C)(NC(=O)c1cc2c(NC(=O)c3ccc(N4CCOCC4)nc3)n[nH]c2s1)c1ccccc1 [Compound 136, 3-[(6-Morpholin-4-yl-pyridine-3-carbonyl)-amino]-1H-thieno[2,3-c]pyrazole-5-carboxylic acid (1-methyl-1-phenyl-ethyl)-amide] | < 0.02
